Assay results published in patent US9521846B2, “Template-fixed peptidomimetics with antimicrobial activity” (priority 2006, dated 2016).
In brackets after ≈: the same amount, converted by molar mass. Non-standard residues stand in square brackets, D forms with d. Residues, ends and D or L forms follow the SMILES beside them. Dab = NCC[C@H](N)C(=O)O

Experiments:
[1] = system: Pseudomonas aeruginosa P1021913; type: cell-based; settings: P1021913
Summary of the method: (§1)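 Antimicrobial values come from two-fold serial dilutions of peptide in Mueller-Hinton broth plus 0.02% BSA, combined with an equal volume of inoculum at approximately 10^6 CFU/ml. The approach followed standard NCCLS broth microdilution, slightly modified.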

[2] = system: Pseudomonas aeruginosa P1021903; type: cell-based; settings: P1021903
Summary of the method: as §1

[3] = system: Pseudomonas aeruginosa P8191900; type: cell-based; settings: P8191900
Summary of the method: as §1

[4] = system: Pseudomonas aeruginosa IMP 1 Livermore 3140; type: cell-based; settings: IMP 1 Livermore 3140
Summary of the method: as §1

HELA cells (Acc57) = assay: Cytotoxicity assay, MTT reduction (LC 50, GI 50); type: cell-based
Summary of the method: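 Read-out was MTT reduction (A595) after 48 h peptide exposure (12.5–50 μM, triplicates) of HeLa cells plated at 7.0×10^3/well and precultured 24 h. Growth % was normalised to a time-zero reading. Linear trend interpolation gave the concentration at −50% growth (LC50) and at 50% growth (GI50).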

in vivo = assay: in vivo; design: species or system CD-1 mice
Procedure: Pharmacokinetic Study after Single Intravenous, Subcutaneous and Intraperitoneal Administration in Mice Pharmacokinetic study after single intravenous (i.v.) and subcutaneous (s.c.) administration was performed for the compound of Example 1 (“Ex. 1”). CD-1 mice (20-25 g) were used in the study. Physiological saline was used a vehicle. The volume was 2 ml/kg i.v., and 5 ml/kg s.c. and the peptide Ex. 1 was injected to give a final intravenous dose of 1 mg/kg, and a subcutaneous dose of 5 mg/kg. […] Plasma was removed from pelleted cells upon centrifugation and frozen at −80° C. prior to HPLC-MS analysis. “Blank” mouse plasma from untreated animals was used. Aliquots of plasma of 0.2 ml each were spiked with 50 ng of propranolol (Internal Standard, IS), (sample preparation by solid phase extraction on OASIS® BIB cartridges (Waters)) and with known amounts of Ex. 1 in order to obtain 9 plasma calibration samples in the range 10-5000 nM. […] The plate containing eluates was introduced into the concentrator system and taken to dryness. […] Samples coming from animal treatments were pooled in order to obtain an appropriate volume for the extraction. If the total volume obtained was less than 0.2 ml the appropriate amount of “blank” mouse plasma was added in order to keep the matrix identical to the calibration curve. Samples were than spiked with IS and processed as described for the calibration curve. PK analysis was performed on pooled data (generally n=2 or 3) using the software Win Nonlin (Pharsight). The area under the curve AUC was calculated by the linear trapezoidal rule. Elimination half-life was calculated by the linear regression on at least three data points during the elimination phase. The time intervals selected for the half-life determinations were evaluated by the correlation coefficient (r^2), which should be at least above 0.85 and most optimally above 0.96. In case of i.v. administration the initial concentration at tzero was determined by extrapolation of the curve through the first two time points. Finally bioavailability after […]. administration was calculated from the normalised AUCinf_D_obs ration after s.c. versus i.v. administration.

[5] = Plasma stability, human plasma; type: in vitro ADME
[6] = Plasma stability, rat plasma; type: in vitro ADME

**Q.** Which “MIC P. aeruginosa P1021913” value [1] does the source give for `CC[C@H](C)[C@@H]1NC(=O)[C@H](Cc2c[nH]c3ccccc23)NC(=O)[C@H]([C@@H](C)O)NC(=O)[C@@H]2CCCN2C(=O)[C@H]2CCCN2C(=O)[C@H](CCN)NC(=O)[C@H](C)NC(=O)[C@H](CCN)NC(=O)[C@H](CCN)NC(=O)[C@H](Cc2c[nH]c3ccccc23)NC(=O)[C@H](CCN)NC(=O)[C@H](CCN)NC(=O)[C@H](CCCCN)NC(=O)[C@H](CCN)NC1=O` [Example 1] (cyclo(TWI[Dab]K[Dab][Dab]W[Dab][Dab]A[Dab][dP]P)) here?
**A.** Its value is 0.13 mg/L (≈ 0.0822 µM).

**Q.** What about the “MIC P. aeruginosa P1021903” value [2] of the same compound?
**A.** The value was 0.07 mg/L (≈ 0.0443 µM).

**Q.** What about the “MIC P. aeruginosa P8191900” value [3] of the same compound?
**A.** Its value is 0.07 mg/L (≈ 0.0443 µM).

**Q.** What about the “MIC P. aeruginosa IMP1 Livermore 3140” value [4] of the same compound?
**A.** The value was 0.18 mg/L (≈ 0.114 µM).

**Q.** And the Cytotoxicity GI50 Hela cells (HELA cells (Acc57))?
**A.** Its Cytotoxicity GI50 Hela cells is 30 µM.

**Q.** What about the Vd (in vivo; CD-1, mouse, iv, 1 mg/kg) of the same compound?
**A.** Its Vd is 1.14 L/kg.

**Q.** And the clearance (in vivo; CD-1, mouse, iv, 1 mg/kg)?
**A.** The clearance was 1.54 L/h/kg.

**Q.** And the level at 0.25 h (in vivo; CD-1, mouse, iv, 1 mg/kg)?
**A.** Its level at 0.25 h is 0.575 µg/mL.

**Q.** What about the level at 1 h (in vivo; CD-1, mouse, iv, 1 mg/kg) of the same compound?
**A.** Its level at 1 h is 0.177 µg/mL.

**Q.** What about the level at 3 h (in vivo; CD-1, mouse, iv, 1 mg/kg) of the same compound?
**A.** The level at 3 h was 0.0106 µg/mL.

**Q.** And the level at 8 h (in vivo; CD-1, mouse, sc, 5 mg/kg)?
**A.** Its level at 8 h is 0.0073 µg/mL.

**Q.** What about the bioavailability (in vivo; mouse, 5 mg/kg) of the same compound?
**A.** The bioavailability was 118.2%.

**Q.** And the bioavailability (in vivo; mouse, 5 mg/kg, Bioavailability)?
**A.** Its bioavailability is 118%.

**Q.** And the AUC(0-inf) (in vivo; mouse, iv, 1 mg/kg)?
**A.** The AUC(0-inf) was 0.679 µg·h/mL.

**Q.** And the C0 (in vivo; mouse, iv, 1 mg/kg)?
**A.** The C0 was 2.17 µg/mL.

**Q.** What about the Cmax_D (in vivo; mouse, iv, 1 mg/kg) of the same compound?
**A.** The Cmax_D was 1268.0 kg·ng/mL/mg.

**Q.** And the Tmax (in vivo; mouse, iv, 1 mg/kg)?
**A.** Its Tmax is 4.8 min.

**Q.** And the half-life (in vivo; mouse, iv, 1 mg/kg)?
**A.** Its half-life is 31.8 min.

**Q.** What about the bioavailability (in vivo; mouse, iv, 1 mg/kg, Bioavailability) of the same compound?
**A.** Its bioavailability is 100%.

**Q.** What about the Cmax (in vivo; mouse, iv, 1 mg/kg, Cmax) of the same compound?
**A.** The Cmax was 1.27 µg/mL.

**Q.** What about the AUC(0-inf) (in vivo; mouse, sc, 5 mg/kg) of the same compound?
**A.** The AUC(0-inf) was 4.02 µg·h/mL.

**Q.** What about the Cl_obs (in vivo; mouse, sc, 5 mg/kg) of the same compound?
**A.** The Cl_obs was 1.2498 L/h/kg.

**Q.** And the Cmax (in vivo; mouse, sc, 5 mg/kg)?
**A.** Its Cmax is 2.3333 µg/mL.

**Q.** And the Cmax_D (in vivo; mouse, sc, 5 mg/kg)?
**A.** Its Cmax_D is 466.7 kg·ng/mL/mg.

**Q.** And the Tmax (in vivo; mouse, sc, 5 mg/kg)?
**A.** Its Tmax is 34.8 min.

**Q.** And the Vz_obs (in vivo; mouse, sc, 5 mg/kg)?
**A.** Its Vz_obs is 1.7056 L/kg.

**Q.** And the half-life (in vivo; mouse, sc, 5 mg/kg)?
**A.** Its half-life is 57 min.

**Q.** What about the Cmax (in vivo; mouse, sc, 5 mg/kg, Cmax) of the same compound?
**A.** Its Cmax is 2.33 µg/mL.

**Q.** What about the “Stability human Plasma t1/2” value [5] of the same compound?
**A.** The value was 300 min.

**Q.** What about the “Average MIC” value (P. aeruginosa) of the same compound?
**A.** Its value is 0.10 mg/L.

**Q.** What about the “Stability rat Plasma t1/2” value [6] of the same compound?
**A.** Its value is 300 min.
